# Source: patent US9090593B2, “Bicyclic compounds as Pim inhibitors” (AMGEN INC., priority 2010, dated 2015)
# Assays:
# [1] = target: T1, full length recombinant Pim-2 protein (Homo sapiens, UniProt Q9P1W9); assay: Pim-2 enzyme assay (HTRF, phosphorylation of biotinylated-BAD (S112) peptide); format: biochemical; details: read-out: Pim2_IC50
# T1 construct: by full length recombinant Pim-1, Pim-2, or Pim-3 protein; hexahistidine tag followed by a thrombin cleavage site (N); made in house; host or cells: Sf9 (baculovirus) or E. coli (pET28)
# Source text: (§1) These cDNAs were used as templates in PCR reactions to produce full-length DNA clones of the PIMs. […] PCR products were digested with […] and EcoRI for Pim-1 and BamHI and EcoRI for Pim-2 and ligated into a modified baculovirus transfer vector (pFastBac1) cleaved with BamHI and EcoRI. For bacterial expression, the same cleaved PCR products encoding Pim-1 or Pim-2 were ligated into a modified E. coli expression vector pET28(a) cleaved with BamHI and EcoRI Amino-terminal hexahistidine tags followed by a thrombin cleavage site were previously added to the vectors using standard methods of molecular biology. Recombinant baculoviruses expressing Pim-1 or Pim-2 were made using standard methods (Fastbac manual, Invitrogen, Carlsbad, Calif.). Infection of Sf9 cells was done at an m.o.i. of greater than 5 for 24-48 h. Cells were harvested by centrifugation and frozen at −80 C. For E. coli expression, cells carrying pET28-His6-Th-Pim-1 or pET28-His6-Th-Pim-2 were picked from a single colony and grown o/n in LB media. The o/n culture was used to inoculate a 2 liter flask with 500 mL media. This was grown o/n and used to inoculate 15-20 liters of Terrific Broth in a New Brunswick Scientific fermentor. The E. coli were grown at 37° C. to and OD600>1.6. The temperature was dropped to 18° C. and o/n expression was induced with 0.5 mM IPTG. Cells were harvested by centrifugation and frozen at −80° C.
# (§2) This step was repeated 3× and the resin was transferred to a 2.5 cm glass column. Ten column volumes of wash buffer (0.05 M HEPES, pH 8.0, 0.1 M NaCl, 0.01 M 2-mercaptoethanol, 10% (w/v) glycerol) were applied to the resin followed by 10 column volumes of elution buffer (0.05 M HEPES, pH 8.0, 0.25 M NaCl, 0.01 M 2-mercaptoethanol, 10% (w/v) glycerol, 0.1 M imidazole). Fractions were analyzed by SDS-PAGE and those containing the protein of interest were pooled and concentrated. The concentrated protein was applied to an Amersham Superdex 75 (XK 26/60) column equilibrated in 0.025 M Tris-HCl, pH 7.5, 0.1 M NaCl, 0.01 M 2-mercaptoethanol, 10% (w/v) glycerol. […] Fractions containing the monomeric protein of interest were pooled, concentrated to ˜2 mg/mL, and stored at −80° C.
# (§3) The phosphorylation of biotinylated-BAD (S112) peptide by full length recombinant Pim-1, Pim-2, or Pim-3 protein was detected with streptavidin:Allophycocyanin (APC) conjugate and a europium (Eu) labeled antibody directed against phosphorylated-BAD (S112). […] The fluorescence is directly proportional to the amount of phosphorylated BAD peptide present in the reaction.
# (§4) A reference compound was included on each assay plate in order to validate that plate; on one plate of every assay run, two additional reference compounds were included.
# (§5) The final buffer conditions were as follows: 60 mM Hepes, pH 7.0, 0.05% BSA, 2 mM DTT. […] The reaction was stopped by the addition of 3 mM EDTA, and fluorescence was measured by an HTRF® Rubystar microplate reader. For each plate, percent of control (POC) values were calculated for each well. Values for the IC50 IP were estimated using a standard 4-parameter logistic model.
# [2] = target: T2, full length recombinant Pim-1 protein (Homo sapiens, UniProt P11309); assay: Pim-1 enzyme assay (HTRF, phosphorylation of biotinylated-BAD (S112) peptide); format: biochemical; details: read-out: Pim_1_IC50
# T2 construct: by full length recombinant Pim-1, Pim-2, or Pim-3 protein; hexahistidine tag followed by a thrombin cleavage site (N); made in house; host or cells: Sf9 (baculovirus) or E. coli (pET28)
# Source text: as §1, §2, §3, §4, §5
# T1 sequence (Q9P1W9 whole entry): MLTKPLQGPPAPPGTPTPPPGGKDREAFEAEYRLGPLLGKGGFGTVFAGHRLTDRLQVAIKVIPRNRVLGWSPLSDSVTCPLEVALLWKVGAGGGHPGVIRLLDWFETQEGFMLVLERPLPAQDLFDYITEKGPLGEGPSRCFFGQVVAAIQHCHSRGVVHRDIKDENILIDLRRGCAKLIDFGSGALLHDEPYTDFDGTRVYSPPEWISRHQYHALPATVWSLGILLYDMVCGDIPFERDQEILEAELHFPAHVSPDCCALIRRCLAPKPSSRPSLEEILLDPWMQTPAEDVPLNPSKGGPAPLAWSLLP
# T2 sequence (P11309 whole entry): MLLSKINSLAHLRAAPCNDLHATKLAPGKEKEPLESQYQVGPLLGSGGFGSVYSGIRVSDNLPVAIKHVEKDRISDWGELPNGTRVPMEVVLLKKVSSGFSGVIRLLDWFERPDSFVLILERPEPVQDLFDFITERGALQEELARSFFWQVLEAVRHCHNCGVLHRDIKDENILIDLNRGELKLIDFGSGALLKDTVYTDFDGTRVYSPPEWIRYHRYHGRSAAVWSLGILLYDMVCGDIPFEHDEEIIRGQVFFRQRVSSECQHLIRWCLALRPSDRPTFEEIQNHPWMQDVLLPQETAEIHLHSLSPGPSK
Compound,IC50 [1] [nM],IC50 [2] [nM]
"COc1cnnc(-c2c[nH]c3ccc(-c4ccccc4F)nc23)c1 [Example 286, 5-(2-fluorophenyl)-3-(5-methoxypyridazin-3-yl)-1H-pyrrolo[3,2-b]pyridine]",> 1000,581
"NC1CCN(c2cc(-c3c[nH]c4ccc(-c5ccccc5F)nc34)nc(O)n2)CC1 [Example 288, 4-(4-aminopiperidin-1-yl)-6-(5-(2-fluorophenyl)-1H-pyrrolo[3,2-b]pyridin-3-yl)pyrimidin-2-ol]",968,364
CC1CCN(c2cccc(-c3ccc4[nH]cc(-c5cncc(O[C@@H]6CCCNC6)n5)c4c3)n2)CC1 [Example 304],619,52
CCNC(=O)c1ccc(C)c(-c2ccc3[nH]cc(-c4cncc(O[C@@H]5CCCNC5)n4)c3c2)c1 [Example 313],515,234
Cc1ccc(C(=O)NC2CCC2)cc1-c1ccc2[nH]cc(-c3cncc(O[C@@H]4CCCNC4)n3)c2c1 [Example 314],428,288
COc1ccc(Cl)cc1-c1ccc2[nH]cc(-c3cncc(O[C@@H]4CCCNC4)n3)c2c1 [Example 317],297,53
c1cc2[nH]cc(-c3cncc(O[C@@H]4CCCNC4)n3)c2cc1-c1cncc(OC2CCCC2)n1 [Example 318],347,35
COc1ccc(OC)c(-c2ccc3[nH]cc(-c4cncc(O[C@@H]5CCCNC5)n4)c3c2)c1 [Example 329],514,83
Nc1ccc(Oc2ncccc2-c2ccc3[nH]cc(-c4cncc(O[C@@H]5CCCNC5)n4)c3c2)cc1 [Example 337],592,56
COc1cc(C#N)c(-c2ccc3[nH]cc(-c4cncc(O[C@@H]5CCCNC5)n4)c3c2)cc1OC(C)C [Example 342],> 1000,159
COc1cc(C#N)cc(-c2ccc3[nH]cc(-c4cncc(O[C@@H]5CCCNC5)n4)c3c2)c1OC [Example 346],363,105
CCCOc1c(OC)cc(C#N)cc1-c1ccc2[nH]cc(-c3cncc(O[C@@H]4CCCNC4)n3)c2c1 [Example 348],> 1000,364
Cc1ccc(C(F)(F)F)cc1-c1ccc2[nH]cc(-c3cncc(O[C@@H]4CCCNC4)n3)c2c1 [Example 353],889,159
COc1cc(C#N)cc(-c2ccc3[nH]cc(-c4cncc(O[C@@H]5CCCNC5)n4)c3c2)c1OC(C)C [Example 354],> 1000,834
c1cc(C2CC2)nc(-c2ccc3[nH]cc(-c4cncc(C5CC5)n4)c3c2)n1 [Example 370],> 1000,126
COc1cncc(-c2n[nH]c3ccc(-c4cc(C(F)(F)F)ccn4)cc23)n1 [Example 378],> 1000,627
CC(C)Oc1cncc(-c2n[nH]c3ccc(-c4nccc(N5CCOC[C@@H]5C)n4)cc23)n1 [Example 380],> 1000,67
COc1cncc(-c2n[nH]c3ccc(-c4nccc(NC5CC5)n4)cc23)n1 [Example 382],335,50
FCCOc1cncc(-c2n[nH]c3ccc(-c4nccc(C5CC5)n4)cc23)n1 [Example 385],457,56
c1cc2[nH]nc(-c3cncc(O[C@@H]4CNCCC45CC5)n3)c2cc1N1CCOCC1 [Example 399],> 1000,> 1000

# Continued, values first:
IC50 [1] [nM],IC50 [2] [nM],Compound
67,20,"CN(C)c1nc(-c2n[nH]c3ccc(Nc4c(F)cccc4F)cc23)cc(=O)[nH]1 [Example 285, 6-(5-((2,6-difluorophenyl)amino)-1H-indazol-3-yl)-2-(dimethylamino) pyrimidin-4(3H)-one]"
75,34,N#Cc1cc(-c2ccc3[nH]cc(-c4cncc(O[C@@H]5CCCNC5)n4)c3c2)ccc1F [Example 295]
55,37,N#Cc1ccc(-c2ccc3[nH]cc(-c4cncc(O[C@@H]5CCCNC5)n4)c3c2)cc1F [Example 296]
234,31,c1cc(OC2CCCC2)nc(-c2ccc3[nH]cc(-c4cncc(O[C@@H]5CCCNC5)n4)c3c2)c1 [Example 298]
115,42,c1cnn(-c2cnc(-c3ccc4[nH]cc(-c5cncc(O[C@@H]6CCCNC6)n5)c4c3)cn2)c1 [Example 300]
68,24,CN(C)c1cnc(-c2ccc3[nH]cc(-c4cncc(O[C@@H]5CCCNC5)n4)c3c2)cn1 [Example 319]
99,31,CC(C)c1ccc(-c2ccc3[nH]cc(-c4cncc(O[C@@H]5CCCNC5)n4)c3c2)cc1 [Example 322]
46,21,O=C(O)c1cccc(-c2ccc3[nH]cc(-c4cncc(O[C@@H]5CCCNC5)n4)c3c2)c1 [Example 325]
141,28,COc1ncccc1-c1ccc2[nH]cc(-c3cncc(O[C@@H]4CCCNC4)n3)c2c1 [Example 328]
268,54,Cc1cccc(-c2ccc3[nH]cc(-c4cncc(O[C@@H]5CCCNC5)n4)c3c2)c1C [Example 330]
156,43,CC(C)Cc1ccc(-c2ccc3[nH]cc(-c4cncc(O[C@@H]5CCCNC5)n4)c3c2)cc1 [Example 332]
149,72,CS(=O)(=O)Nc1cc(-c2ccc3[nH]cc(-c4cncc(O[C@@H]5CCCNC5)n4)c3c2)cnc1Cl [Example 334]
260,42,c1cc2[nH]cc(-c3cncc(O[C@@H]4CCCNC4)n3)c2cc1-c1cncc(C2CCCN2)c1 (some centres unmarked) [Example 340]
290,30,CC(=O)Nc1cc(-c2ccc3[nH]cc(-c4cncc(O[C@@H]5CCCNC5)n4)c3c2)cc(C(F)(F)F)c1 [Example 349]
133,30,CC(C)Oc1ccc(-c2ccc3[nH]cc(-c4cncc(O[C@@H]5CCCNC5)n4)c3c2)cc1C#N [Example 352]
253,57,FC(F)(F)COc1cncc(-c2n[nH]c3ccc(-c4cncc(C5CC5)n4)cc23)n1 [Example 363]
113,26,c1cc(C2CC2)nc(-c2c[nH]c3ccc(-c4cncc(C5CC5)n4)cc23)n1 [Example 371]
243,75,Cn1nccc1-c1ccc2[nH]nc(-c3cncc(O[C@@H]4CCCNC4)n3)c2c1 [Example 375]
275,21,COc1cncc(-c2n[nH]c3ccc(-c4nccc(N5CCOC[C@@H]5C)n4)cc23)n1 [Example 376]
231,55,COc1cncc(-c2n[nH]c3ccc(-c4nccc(C(C)C)n4)cc23)n1 [Example 377]
230,93,CC(C)Oc1cncc(-c2n[nH]c3ccc(-c4cnn(C(C)C)c4)cc23)n1 [Example 387]
124,116,COc1cncc(-c2n[nH]c3ccc(-c4cnn(C(C)C)c4)cc23)n1 [Example 388]
200,173,O=C(NC1CC1)c1ccc(F)c(-c2ccc3[nH]nc(-c4cncc(OCCF)n4)c3c2)c1 [Example 389]
241,119,NC(=O)c1ccc(F)c(-c2ccc3[nH]nc(-c4cncc(OCCF)n4)c3c2)c1 [Example 390]
58,30,C[C@@H]1CN(c2ccc3[nH]nc(-c4cncc(O[C@H]5CNCCC56CC6)n4)c3c2)CCO1 [Example 401]
39,30,C[C@H]1COCCN1c1ccc2[nH]nc(-c3cncc(O[C@H]4CNCCC45CC5)n3)c2c1 [Example 402]
